From ChEMBL document CHEMBL1201862, “PubChem BioAssay data set” (2004)
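Five concentrations, 48 hours, 96-well plates. GI50 = concentration required for 50% inhibition of growth.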 Activity calls are given as the source filed them. No stated cut-off is given here; in the data, active = GI50 up to about 1.1 µM and inactive = higher.

Experiments:
Assay in all cases: inhibition of tumour cell growth, NCI panel, 48 h
786-0 = system: 786-0
A498 = system: A498
A549 = system: A549
ACHN = system: ACHN
BT-549 = system: BT-549
CAKI-1 = system: CAKI-1
CCRF-CEM = system: CCRF-CEM
COLO 205 = system: COLO 205
DU-145 = system: DU-145
EKVX = system: EKVX
HCC 2998 = system: HCC 2998
HCT-116 = system: HCT-116
HCT-15 = system: HCT-15
HL-60 = system: HL-60
HOP-62 = system: HOP-62
HOP-92 = system: HOP-92
HT-29 = system: HT-29
Hs-578T = system: Hs-578T
IGROV-1 = system: IGROV-1
K562 = system: K562
KM12 = system: KM12
LOX IMVI = system: LOX IMVI
M14 = system: M14
MCF7 = system: MCF7
MDA-MB-231 = system: MDA-MB-231
MDA-MB-435 = system: MDA-MB-435
MDA-N = system: MDA-N
MOLT-4 = system: MOLT-4
Malme-3M = system: Malme-3M
NCI-H226 = system: NCI-H226
NCI-H23 = system: NCI-H23
NCI-H460 = system: NCI-H460
NCI-H522 = system: NCI-H522
NCI/ADR-RES = system: NCI/ADR-RES
OVCAR-3 = system: OVCAR-3
OVCAR-4 = system: OVCAR-4
OVCAR-5 = system: OVCAR-5
OVCAR-8 = system: OVCAR-8
PC-3 = system: PC-3
RPMI-8226 = system: RPMI-8226
RXF 393 = system: RXF 393
SF-268 = system: SF-268
SF-295 = system: SF-295
SF-539 = system: SF-539
SK-MEL-28 = system: SK-MEL-28
SK-MEL-2 = system: SK-MEL-2
SK-MEL-5 = system: SK-MEL-5
SK-OV-3 = system: SK-OV-3
SN12C = system: SN12C
SNB-19 = system: SNB-19
SNB-75 = system: SNB-75
SW-620 = system: SW-620
T47D = system: T47D
TK-10 = system: TK-10
U-251 = system: U-251
UACC-257 = system: UACC-257
UACC-62 = system: UACC-62
SR = system: SR
UO-31 = system: UO-31

CC(C)Cn1cnnc1NS(=O)(=O)c1cc(C(=O)NN)c(Cl)cc1S was tested, and the GI50 (786-0) was > 10 µM (inactive), the GI50 (A498) was > 10 µM (inactive) and the GI50 (A549) was > 10 µM (inactive). For the same molecule, the GI50 (ACHN) was > 10 µM (inactive), the GI50 (BT-549) was > 10 µM (inactive) and the GI50 (CAKI-1) was > 10 µM (inactive). For the same molecule, the GI50 (CCRF-CEM) was > 10 µM (inactive), the GI50 (COLO 205) was > 10 µM (inactive) and the GI50 (DU-145) was > 10 µM (inactive). For the same molecule, the GI50 (EKVX) was > 10 µM (inactive), the GI50 (HCC 2998) was > 10 µM (inactive) and the GI50 (HCT-116) was > 10 µM (inactive). For the same molecule, the GI50 (HCT-15) was greater than 10 µM, the GI50 (HL-60) was > 10 µM (inactive) and the GI50 (HOP-62) was > 10 µM (inactive). For the same molecule, the GI50 (HOP-92) was > 10 µM (inactive), the GI50 (HT-29) was > 10 µM (inactive) and the GI50 (Hs-578T) was > 10 µM (inactive). For the same molecule, the GI50 (IGROV-1) was > 10 µM (inactive), the GI50 (K562) was > 10 µM (inactive) and the GI50 (KM12) was > 10 µM (inactive). The GI50 (LOX IMVI) was > 10 µM (inactive), the GI50 (M14) was > 10 µM (inactive) and the GI50 (MCF7) was > 10 µM (inactive). For the same molecule, the GI50 (MDA-MB-231) was > 10 µM (inactive), the GI50 (MDA-MB-435) was > 10 µM (inactive) and the GI50 (MDA-N) was > 10 µM (inactive). For the same molecule, the GI50 (MOLT-4) was > 10 µM (inactive), the GI50 (Malme-3M) was > 10 µM (inactive) and the GI50 (NCI-H226) was > 10 µM (inactive). The GI50 (NCI-H23) was > 10 µM (inactive), the GI50 (NCI-H460) was > 10 µM (inactive) and the GI50 (NCI-H522) was > 10 µM (inactive). For the same molecule, the GI50 (NCI/ADR-RES) was > 10 µM (inactive), the GI50 (OVCAR-3) was > 10 µM (inactive) and the GI50 (OVCAR-4) was > 10 µM (inactive). For the same molecule, the GI50 (OVCAR-5) was > 10 µM (inactive), the GI50 (OVCAR-8) was > 10 µM (inactive) and the GI50 (PC-3) was > 10 µM (inactive). For the same molecule, the GI50 (RPMI-8226) was > 10 µM (inactive), the GI50 (RXF 393) was > 10 µM (inactive) and the GI50 (SF-268) was > 10 µM (inactive). For the same molecule, the GI50 (SF-295) was > 10 µM (inactive), the GI50 (SF-539) was > 10 µM (inactive) and the GI50 (SK-MEL-28) was > 10 µM (inactive). The GI50 (SK-MEL-2) was > 10 µM (inactive), the GI50 (SK-MEL-5) was > 10 µM (inactive) and the GI50 (SK-OV-3) was > 10 µM (inactive). For the same molecule, the GI50 (SN12C) was > 10 µM (inactive), the GI50 (SNB-19) was > 10 µM (inactive) and the GI50 (SNB-75) was > 10 µM (inactive). The GI50 (SW-620) was > 10 µM (inactive), the GI50 (T47D) was > 10 µM (inactive) and the GI50 (TK-10) was > 10 µM (inactive). The GI50 (U-251) was > 10 µM (inactive), the GI50 (UACC-257) was > 10 µM (inactive) and the GI50 (UACC-62) was > 10 µM (inactive).

COC(=O)C1=C(C)N2[C@H](C(=O)O)CS[C@@]2(C)[C@H](C(=O)OC)[C@H]1c1cccc([N+](=O)[O-])c1 was tested, and the GI50 (786-0) was > 100 µM (inactive), the GI50 (A498) was > 100 µM (inactive) and the GI50 (A549) was > 100 µM (inactive). The GI50 (ACHN) was > 100 µM (inactive), the GI50 (BT-549) was > 100 µM (inactive) and the GI50 (CAKI-1) was > 100 µM (inactive). For the same molecule, the GI50 (CCRF-CEM) was > 100 µM (inactive), the GI50 (COLO 205) was > 100 µM (inactive) and the GI50 (DU-145) was > 100 µM (inactive). For the same molecule, the GI50 (EKVX) was > 100 µM (inactive), the GI50 (HCC 2998) was > 100 µM (inactive) and the GI50 (HCT-116) was > 100 µM (inactive). The GI50 (HCT-15) was greater than 100 µM, the GI50 (HOP-62) was > 100 µM (inactive) and the GI50 (HOP-92) was 54.5 µM (inactive). For the same molecule, the GI50 (HT-29) was > 100 µM (inactive), the GI50 (Hs-578T) was > 100 µM (inactive) and the GI50 (IGROV-1) was > 100 µM (inactive). For the same molecule, the GI50 (K562) was > 100 µM (inactive), the GI50 (KM12) was > 100 µM (inactive) and the GI50 (M14) was > 100 µM (inactive). For the same molecule, the GI50 (MCF7) was > 100 µM (inactive), the GI50 (MDA-MB-231) was > 100 µM (inactive) and the GI50 (MDA-MB-435) was > 100 µM (inactive). The GI50 (MDA-N) was > 100 µM (inactive), the GI50 (MOLT-4) was > 100 µM (inactive) and the GI50 (Malme-3M) was > 100 µM (inactive). The GI50 (NCI-H226) was > 100 µM (inactive), the GI50 (NCI-H23) was > 100 µM (inactive) and the GI50 (NCI-H460) was > 100 µM (inactive). The GI50 (NCI-H522) was > 100 µM (inactive), the GI50 (NCI/ADR-RES) was > 100 µM (inactive) and the GI50 (OVCAR-3) was > 100 µM (inactive). For the same molecule, the GI50 (OVCAR-4) was > 100 µM (inactive), the GI50 (OVCAR-5) was > 100 µM (inactive) and the GI50 (OVCAR-8) was > 100 µM (inactive). The GI50 (PC-3) was > 100 µM (inactive), the GI50 (RPMI-8226) was > 100 µM (inactive) and the GI50 (RXF 393) was > 100 µM (inactive). For the same molecule, the GI50 (SF-268) was > 100 µM (inactive), the GI50 (SF-295) was > 100 µM (inactive) and the GI50 (SF-539) was > 100 µM (inactive). For the same molecule, the GI50 (SK-MEL-28) was > 100 µM (inactive), the GI50 (SK-MEL-2) was > 100 µM (inactive) and the GI50 (SK-MEL-5) was > 100 µM (inactive). The GI50 (SK-OV-3) was > 100 µM (inactive), the GI50 (SN12C) was > 100 µM (inactive) and the GI50 (SNB-19) was > 100 µM (inactive). The GI50 (SNB-75) was > 100 µM (inactive), the GI50 (SR) was > 100 µM (inactive) and the GI50 (SW-620) was > 100 µM (inactive). The GI50 (T47D) was > 100 µM (inactive), the GI50 (TK-10) was > 100 µM (inactive) and the GI50 (U-251) was > 100 µM (inactive). For the same molecule, the GI50 (UACC-257) was > 100 µM (inactive), the GI50 (UACC-62) was > 100 µM (inactive) and the GI50 (UO-31) was > 100 µM (inactive).
